According to patent US10697960B2, “CXCR4 and ROBO1 expression as markers for autoimmune diabetes” (BOARD OF SUPERVISORS OR LOUISANA STATE UNIVERSITY AND …, priority 2012, dated 2020):
“Also recorded” adds a separate entry of the source. Square brackets hold non-standard residues; d marks the D form. Ends that are not written are not given here. Linker = not defined here

Experiments:
[1] = tested on: NOD/ShiLtJ T cells on TNFα-activated MS1 islet endothelial cells; experiment: Parallel plate flow chamber T cell adhesion assay with SDF-1 peptide mimetic; type: cell-based, mouse; conditions: 150 mPa; for TNFα-induced firm adhesion of T cells (fold change in number of adherent cells): MS1 cells treated 10 minutes with mimetic at 200, 1000 or 5000 ng/ml after 10 ng/ml TNFα, versus TNFα alone
Experimental: Hydrodynamic flow chamber assays were performed as otherwise described in C. Sharp et al. (2008). Briefly, T cells isolated as described above were labeled with CellTracker Green (C7025; Life Technologies, Carlsbad, Calif., USA), rinsed, and resuspended at a concentration of 2×10^6 cells/ml in phenol red-free Hanks' balanced salt solution (HBSS). The cells were placed in a beaker that had been previously coated with Sigmacote (Sigma-Aldrich), kept at 37° C., and stirred at 60 rev/min. A flow chamber insert and gasket with a 0.5 cm flow width and 250 μm thickness (GlycoTech, Gaithersburg, Md., USA) were used with 35 mm cell culture dishes containing confluent MS1 cell cultures to form a parallel plate flow chamber. To activate endothelial cells, MS1 cells were treated for 4 to 6 hours at 37° C. with 10 ng/ml recombinant mouse TNFα (T7539; Sigma).
For the SDF-1 peptide mimetic T cell adhesion assay, MS1 cells were rinsed with HBSS and treated for 10 minutes with an SDF-1 peptide mimetic (AYWKENKEQ with two branched lysines as a linker between the two motifs, SEQ ID NO 1) at […]. This peptide was a linearized version of a cyclized SDF-1 analogue reported by Tudan et al., “C-terminal cyclization of an SDF-1 small peptide analogue dramatically increases receptor affinity and activation of CXCR4 receptor,” J. Med. Chem., vol. 45, pp. 2024-31 (2002). T cells were pumped through polypropylene tubing by a syringe pump (KD Scientific, Holliston, Mass., USA) across the endothelial monolayer at a physiological shear stress of 150 mPa. Real-time digital video images (minimum 28 frames/second) were captured with an epifluorescence microscope (TE-2000 Eclipse; Nikon, Tokyo, Japan) and digital camera (Model C4742-95-12ER: Hamamatsu Photonics, Hamamatsu, Japan). Simple PCI software (Hamamatsu Photonics) was used to analyze the video and to measure T cell rolling velocities. Cells were considered firmly adherent if they remained stationary for 10 seconds within the field of view. A minimum of three videos per plate and four plates per condition were used for analysis.
We examined whether a linear SDF-1 peptide mimetic containing the receptor-binding site could replicate the effect of full length SDF-1 in blocking adhesion of T cells to activated endothelium. MS1 cells were treated for 4 hours with 10 ng/ml TNFα, followed by treatment for 10 minutes with an SDF-1 peptide mimetic at 200, 1000, or 5000 ng/ml. Cells were then tested in a parallel plate flow chamber cell adhesion assay. Fluorescently labeled T cells obtained from NOD/ShiLtJ mice flowed over the endothelial monolayers at 150 mPa. […] Leucocyte adhesion videos were analyzed to calculate T cell rolling velocity and to determine whether the decrease in firm adhesion was due to a decreased number of rolling cells.

NOD/LtSz Rag1^−/− mice = experiment: Diabetes adoptive transfer of diabetogenic splenocytes; type: in vivo, mouse; conditions: for blood glucose levels compared with PBS treatment: 4 to 5 weeks post-transfer
Experimental: Single cell suspensions of splenocytes were isolated from spleens of spontaneously diabetic female NOD/ShiLtJ mice as otherwise described in J. Glawe et al. (2009) Genetic deficiency of Itgb2 or ItgaL prevents autoimmune diabetes through distinctly different mechanisms in NOD/LtJ mice. Diabetes 58: 1292-1301, Erythrocytes were lysed with 150 mM NH4Cl, 1.0 mM/l KHCO3, and 0.1 mM disodium EDTA, and then resuspended in PBS at 200×10^6 splenocytes per ml. Female NOD/LtSz Rag1^−/− mice were injected retro-orbitally with 20×10^6 splenocytes.
The recipient mice were then injected retro-orbitally, either once or three times per week, with the SDF-1 peptide mimetic CTCE-0214 (SEQ ID NO. 2, KPVSLSYRCPCRFF-Linker-LKWIQEYLEKALN-OH) (British Canadian BioSciences, Vancouver, BC, Canada) at 1 or 10 mg/kg, or with PBS. See K Li, et al., “Small peptide analogue of SDF-1a supports survival of cord blood CD34+ cells in synergy with other cytokines and enhances their ex vivo expansion and engraftment into nonobese diabetic/severe combined immunodeficient mice,” Stem Cells, vol, 24, pp. 56-64 (2006); R. Zhong et al., “Small peptide analogs to stromal derived factor 1 enhance chemotactic migration of human and mouse hematopoietic cells,” Experimental Hematology, vol 32, pp. 470-475 (2004); A. Faber at al., “The many facets of SDF-1, CXCR4 agonists and antagonists on hematopoietic progenitor cells,” Journal of Biomedicine and Biotechnology, Article ID 26065; doi: 10.1155/200726065 (2007). Blood glucose was measured twice per week via a tail stick assay (Ascensia Glucometer Elite; Bayer, Leverkusen, Germany). Mice were considered hyperglycaemic following two consecutive measurements at 13.9 mM (250 mg/dl) glucose. Another SDF-1 mimetic that could be used is the CTCE-9908 peptide disclosed by A. Faber at al. (2007).

CD34^+ cells = conditions: at much higher concentrations than SDF-1; cited from earlier work
[2] = tested on: adoptive transfer models in mice; conditions: cited from earlier work
[3] = tested on: NOD/ShiLtJ T cells on VCAM-1- and ICAM-1-coated plates; experiment: SLIT2 T cell detachment assay on VCAM-1- and ICAM-1-coated plates; type: cell-based, mouse; conditions: SDF-1 plus 20 μg/ml SLIT2 versus SDF-1 alone
Experimental: T cell detachment assays were performed as otherwise described in C. Sharp et al. (2008). T cells were injected into the tubing via an inlet port upstream of the flow chamber at a concentration of 2×10^6 cells/ml and allowed to firmly adhere under static conditions for 15 minutes. Next, shear stress was initiated and increased in a step-wise manner every 30 seconds as follows: 35, 56, 91, 224, 504, and 980 mPa. The assay was recorded by video, which was analyzed to determine the percentage of cells detached at the end of each shear stress interval. For the anti-ROBO1 detachment assay, MS1 cells were treated for […] at 37° C. with TNFα as described above and then with 100 ng/ml recombinant mouse SDF-1α (460-SD; R&D Systems). T cells were pre-treated for 30 minutes at 37° C. with 20 μg/ml ROBO1 blocking antibody (GT15144; Neuromics, Edina, Minn., USA) or isotype control (GT15900; Neuromics).
For the SLIT2 detachment assay, the following modifications were made. Vascular cell adhesion molecule 1 (VCAM-1)- and intercellular cell adhesion molecule 1 (ICAM-1)-coated plates were substituted for confluent monolayers of MS1 cells to isolate the specific ligand and receptor interactions involved. Plates were treated by tracing five 5 mm diameter circles aligned in one row in the center of a 100 mm diameter tissue culture dish using a PAP pen, and then applying 15 μl of 1 mg/ml protein A to each circle for 30 minutes. Plates were rinsed twice with PBS and blocked for 30 minutes with 5% (wt/vol) BSA in PBS. Plates were rinsed and each circle was then treated for 30 minutes with 15 μl of a solution containing 5 μg/ml ICAM-1/Fc chimera (796-IC; R&D Systems) and 5 μg/ml VCAM-1/Fc chimera (643-VM; R&D Systems), or PBS (control). Plates were rinsed and stored at 4° C. T cells were suspended in HBSS containing, 10 μg/ml heparin sodium and treated for 15 minutes at 37° C. with 250 ng/ml SDF-1 and 20 μg/ml recombinant mouse SLIT2 (5444-SL; R&D Systems) before use. A Glycotech rectangular flow chamber with a 250 μm thick gasket and a 1 cm wide flow path was used. […]

AYWKENKEQ with two branched lysines as a linker between the two motifs (also: two branched lysines as a linker between the two motifs) [SDF-1 peptide mimetic, linearized version of a cyclized SDF-1 analogue reported by Tudan et al]
TNFα-induced firm adhesion of T cells (fold change in number of adherent cells) [1]: prevented NOD T cell adhesion; also recorded: significantly reduced; also recorded: reversed
number of rolling cells ([1]; TNFα-treated MS1 cells, data not shown): did not decrease
T cell rolling velocity ([1]; TNFα-treated endothelial cells, versus control): did not significantly affect

KPVSLSYRCPCRFF-Linker-LKWIQEYLEKALN-OH (KPVSLSYRCPCRFF[Linker]LKWIQEYLEKALN-OH; cysteine pairing not given here; reading uncertain; also: printed as KPVSLSYRCPCRFF-Linker-LKWIQEYLEKALN-OH) [CTCE-0214, 2, small peptide CXCR4 agonist from British Canadian BioSciences]
TNFα-induced firm adhesion of T cells (fold change in number of adherent cells) [1]: can reduce
progression of autoimmune diabetes (NOD/LtSz Rag1^−/− mice; 1 mg/kg): almost no effect
blood glucose levels compared with PBS treatment (NOD/LtSz Rag1^−/− mice; 1 mg/kg three times per week): not
blood glucose levels compared with PBS-treated mice (NOD/LtSz Rag1^−/− mice; 10 mg/kg once per week, retro-orbital, 5.5 and 6 weeks post-transfer): significantly reduced glucose levels
development of hyperglycaemia compared with PBS treatment (NOD/LtSz Rag1^−/− mice; 10 mg/kg one time per week): delayed development of hyperglycaemia
development of hyperglycaemia compared with PBS treatment (NOD/LtSz Rag1^−/− mice; 10 mg/kg three times per week): delayed development of hyperglycaemia
blood glucose levels compared with PBS treatment (NOD/LtSz Rag1^−/− mice; 10 mg/kg three times per week): significantly reduced glucose levels
adoptive transfer / progression of autoimmune diabetes, onset of hyperglycaemia (NOD/LtSz Rag1^−/− mice; 10 mg/kg where a dose is stated): significantly delayed the onset of hyperglycaemia; also recorded: therapeutically beneficial; also recorded: effectively delayed adoptive transfer of diabetes; also recorded: slowed the development of diabetes
effect of dosing frequency on incidence of hyperglycaemia (NOD/LtSz Rag1^−/− mice; once per week versus three times per week): better reduction in the incidence of hyperglycaemia at a dosing of once per week; also recorded: more beneficial effect at once-a-week dosing
migration of CD34^+ cells (CD34^+ cells): increases migration

c1cc(CN2CCCNCCNCCCNCC2)ccc1CN1CCCNCCNCCCNCC1 [AMD3100]
development of diabetes ([2]; disruption of SDF-1-CXCR4 binding): accelerate the development of diabetes
beta cell apoptosis ([2]; mouse, in vivo): induce beta cell apoptosis

B1: SLIT2: recombinant mouse SLIT2 (5444-SL; R&D Systems), ligand of ROBO1 (protein)
chain: QACPAQCSCSGSTVDCHGLALRSVPRNIPRNTERLDLNGNNITRITKIDFAGLRHLRVLQLMENRISTIERGAFQDLKELERLRLNRNNLQLFPELLFLGTAKLYRLDLSENQIQAIPRKAFRGAVDIKNLQLDYNQISCIEDGAFRALRDLEVLTLNNNNITRLSVASFNHMPKLRTFRLHSNNLYCDCHLAWLSDWLRQRPRVGLYTQCMGPSHLRGHNVAEVQKREFVCSGHQSFMAPSCSVLHCPAACTCSNNIVDCRGKGLTEIPTNLPETITEIRLEQNSIRVIPPGAFSPYKKLRRLDLSNNQISELAPDAFQGLRSLNSLVLYGNKITELPKSLFEGLFSLQLLLLNANKINCLRVDAFQDLHNLNLLSLYDNKLQTVAKGTFSALRAIQTMHLAQNPFICDCHLKWLADYLHTNPIETSGARCTSPRRLANKRIGQIKSKKFRCSGTEDYRSKLSGDCFADLACPEKCRCEGTTVDCSNQRLNKIPDHIPQYTAELRLNNNEFTVLEATGIFKKLPQLRKINFSNNKITDIEEGAFEGASGVNEILLTSNRLENVQHKMFKGLESLKTLMLRSNRISCVGNDSFIGLGSVRLLSLYDNQITTVAPGAFDSLHSLSTLNLLANPFNCNCHLAWLGEWLRRKRIVTGNPRCQKPYFLKEIPIQDVAIQDFTCDDGNDDNSCSPLSRCPSECTCLDTVVRCSNKGLKVLPKGIPKDVTELYLDGNQFTLVPKELSNYKHLTLIDLSNNRISTLSNQSFSNMTQLLTLILSYNRLRCIPPRTFDGLKSLRLLSLHGNDISVVPEGAFNDLSALSHLAIGANPLYCDCNMQWLSDWVKSEYKEPGIARCAGPGEMADKLLLTTPSKKFTCQ
shear-mediated T cell detachment from VCAM-1- and ICAM-1-coated plates [3]: significant increase in detachment; also recorded: promoted detachment
shear-mediated T cell detachment from VCAM-1- and ICAM-1-coated plates ([3]; listed as Slit-2 peptide containing the LRR domain 2): stimulated detachment
shear-mediated T cell detachment from VCAM-1- and ICAM-1-coated plates ([3]; listed as recombinant SLIT2): reversed
